Results reported in ChEMBL document CHEMBL3885861, “Open TG-GATES”.

Species on record: Rattus norvegicus
Test: Open TG-GATES - Regimen: Single
Assay type: toxicity, organism-based, Sprague-Dawley
Design: regimen Single, gender Male, age 6 weeks
Conditions: in vivo, po, 0 mg/kg, route gavage, dose level Control; for APTT / Bas / Eos / Fbg / Hb / Ht / Lym / MCH / MCHC / MCV / Mono / Neu / PT / Plat / RBC / Ret / WBC: tissue Blood; for KIDNEY_L / KIDNEY_R / KIDNEY_TOTAL: tissue Kidney; for LIVER: tissue Liver; for A/G / ALP / ALT / AST / BUN / CRE / Ca / Cl / DBIL / GLC / IP / K / LDH / Na / PL / RALB / TBIL / TC / TG / TP / gamma-GTP: tissue Plasma

## Cc1ccc(C)c(OCCCC(C)(C)C(=O)O)c1 [GEMFIBROZIL]
3 h
  TERMINAL_BW: 223.7 g
  APTT: 16.9 s
  Bas: 0%
  Eos: 0.6%
  Fbg: 276.4 mg/dL
  Hb: 14 g/dL
  Ht: 40.2%
  Lym: 81.2%
  MCH: 22.6 pg
  MCHC: 34.9%
  MCV: 64.7 fL
  Mono: 2.8%
  Neu: 14.6%
  PT: 12.3 s
  Plat: 124.4 x10_4/uL
  RBC: 621.6 x10_4/ul
  Ret: 8%
  WBC: 76.9 x10_2/uL
  KIDNEY_L: 1 g
  KIDNEY_R: 0.9 g
  KIDNEY_TOTAL: 1.9 g
  LIVER: 9.8 g
  A/G: 0.9
  ALP: 1456 IU/L
  ALT: 45.2 IU/L
  AST: 71.2 IU/L
  BUN: 12.6 mg/dL
  CRE: 0.2 mg/dL
  Ca: 11.3 mg/dL
  Cl: 105 meq/L
  DBIL: 0.046 mg/dL
  GLC: 180.6 mg/dL
  IP: 10.4 mg/dL
  K: 4.2 meq/L
  LDH: 74 IU/L
  Na: 140.2 meq/L
  PL: 179.2 mg/dL
  RALB: 2.6 g/dL
  TBIL: 0.052 mg/dL
  TC: 86.4 mg/dL
  TG: 155.8 mg/dL
  TP: 5.6 g/dL
  gamma-GTP: 1 IU/L
6 h
  TERMINAL_BW: 221.6 g
  APTT: 16.7 s
  Bas: 0%
  Eos: 0.8%
  Fbg: 299 mg/dL
  Hb: 13.9 g/dL
  Ht: 40.6%
  Lym: 75.4%
  MCH: 21.4 pg
  MCHC: 34.3%
  MCV: 62.5 fL
  Mono: 3.6%
  Neu: 19.2%
  PT: 12.1 s
  Plat: 127 x10_4/uL
  RBC: 649.8 x10_4/ul
  Ret: 7.3%
  WBC: 71.6 x10_2/uL
  KIDNEY_L: 0.9 g
  KIDNEY_R: 0.9 g
  KIDNEY_TOTAL: 1.8 g
  LIVER: 9.1 g
  A/G: 0.9
  ALP: 1398 IU/L
  ALT: 43 IU/L
  AST: 70.6 IU/L
  BUN: 9.6 mg/dL
  CRE: 0.2 mg/dL
  Ca: 11.1 mg/dL
  Cl: 107.4 meq/L
  DBIL: 0.024 mg/dL
  GLC: 183 mg/dL
  IP: 10.9 mg/dL
  K: 4.3 meq/L
  LDH: 60.8 IU/L
  Na: 141.6 meq/L
  PL: 156 mg/dL
  RALB: 2.7 g/dL
  TBIL: 0.046 mg/dL
  TC: 86.2 mg/dL
  TG: 71.2 mg/dL
  TP: 5.6 g/dL
  gamma-GTP: 1.4 IU/L
9 h
  TERMINAL_BW: 223.1 g
  APTT: 15.5 s
  Bas: 0%
  Eos: 1%
  Fbg: 302.2 mg/dL
  Hb: 14 g/dL
  Ht: 41%
  Lym: 80%
  MCH: 21.6 pg
  MCHC: 34.1%
  MCV: 63.4 fL
  Mono: 2.6%
  Neu: 15.8%
  PT: 12.3 s
  Plat: 110.9 x10_4/uL
  RBC: 646.6 x10_4/ul
  Ret: 7.6%
  WBC: 69.8 x10_2/uL
  KIDNEY_L: 0.9 g
  KIDNEY_R: 0.9 g
  KIDNEY_TOTAL: 1.8 g
  LIVER: 8.6 g
  A/G: 0.9
  ALP: 1255.2 IU/L
  ALT: 36.6 IU/L
  AST: 65.4 IU/L
  BUN: 12 mg/dL
  CRE: 0.2 mg/dL
  Ca: 11.1 mg/dL
  Cl: 107 meq/L
  DBIL: 0.02 mg/dL
  GLC: 194.2 mg/dL
  IP: 11.9 mg/dL
  K: 4 meq/L
  LDH: 58 IU/L
  Na: 143.4 meq/L
  PL: 150.2 mg/dL
  RALB: 2.6 g/dL
  TBIL: 0.046 mg/dL
  TC: 82.2 mg/dL
  TG: 60.4 mg/dL
  TP: 5.4 g/dL
  gamma-GTP: 1.2 IU/L
24 h
  TERMINAL_BW: 226.6 g
  APTT: 14.7 s
  Bas: 0%
  Eos: 0.8%
  Fbg: 286 mg/dL
  Hb: 13.5 g/dL
  Ht: 38.9%
  Lym: 78.2%
  MCH: 21.7 pg
  MCHC: 34.7%
  MCV: 62.6 fL
  Mono: 2.6%
  Neu: 17.8%
  PT: 12 s
  Plat: 117.7 x10_4/uL
  RBC: 621.8 x10_4/ul
  Ret: 6.6%
  WBC: 87.1 x10_2/uL
  KIDNEY_L: 1 g
  KIDNEY_R: 0.9 g
  KIDNEY_TOTAL: 1.9 g
  LIVER: 10.2 g
  A/G: 1
  ALP: 1725.4 IU/L
  ALT: 48 IU/L
  AST: 74.6 IU/L
  BUN: 16.2 mg/dL
  CRE: 0.2 mg/dL
  Ca: 11.4 mg/dL
  Cl: 104.8 meq/L
  DBIL: 0.024 mg/dL
  GLC: 187 mg/dL
  IP: 8.7 mg/dL
  K: 4.1 meq/L
  LDH: 79.8 IU/L
  Na: 142 meq/L
  PL: 144.6 mg/dL
  RALB: 2.7 g/dL
  TBIL: 0.034 mg/dL
  TC: 78 mg/dL
  TG: 75 mg/dL
  TP: 5.6 g/dL
  gamma-GTP: 1 IU/L
